Experimental data taken from patent EP0564397A1, “Antiatherosclerotic substituted phenylquinazoline derivatives” (SANDOZ LTD., priority 1992, dated 1993).

Legend:
Settings in all cases: duration of treatment 8 days
[1] = test system: HDL-cholesterol; assay: Test A: In vivo HDL-cholesterol test
Excerpt: (§1) a) Test A: In vivo HDL-cholesterol test: The test is effected according to the method described in the literature, e.g. in EP 528 146 Other conventional methods may be used to assay the blood serum samples for HDL-cholesterol and total triglycerides content.

[2] = test system: total triglycerides; assay: Test A: In vivo HDL-cholesterol test, blood serum samples assayed for total triglycerides content
Excerpt: as §1

[3] = test system: Apo A-I; assay: Test B: Apo A-I test; format: in vivo
Excerpt: b) Test B: Apo A-I test: The test is effected as described in the literature, e.g. in EP 528 146.

Compound	HDL-cholesterol level increase (%) ([1]; average dose 83 mg/kg/day)	Total triglyceride level decrease (%) ([2]; average dose 83 mg/kg/day)	Apo-I level increase (%) ([3]; average dose 83 mg/kg/day)	HDL-cholesterol level increase (%) ([1]; average dose 53 mg/kg/day)	Total triglyceride level decrease (%) ([2]; average dose 53 mg/kg/day)	Apo-I level increase (%) ([3]; average dose 53 mg/kg/day)
CC1=CSC2=Nc3ccccc3[C@@H](c3ccccc3)N12 [Example 1, R-isomer (free base), (R)-3-Methyl-5-phenyl-5H-thiazolo[2,3-b]quinazoline]	402	15	62	–	–	–
Cc1ccc(C)c(OCCCC(C)(C)C(=O)O)c1 [Gemfibrozil]	–	–	–	211	15	88
